Here are results for 5 compounds from publication PMC6925310 (SLAS discovery : advancing life sciences R & D, 2019).

Several values for one entry are separate records, joined by “and”; a condition that tells them apart may be missing. Equal entries are not always repeated. Entries after “also recorded” stand apart in the source; their conditions may differ. Where two headings read alike, the source gives them in different places.

For data set [1], the target named is T1, P. aeruginosa LysRS (Pseudomonas aeruginosa, UniProt Q9HXU0).
T1 sequence (Q9HXU0 1-501): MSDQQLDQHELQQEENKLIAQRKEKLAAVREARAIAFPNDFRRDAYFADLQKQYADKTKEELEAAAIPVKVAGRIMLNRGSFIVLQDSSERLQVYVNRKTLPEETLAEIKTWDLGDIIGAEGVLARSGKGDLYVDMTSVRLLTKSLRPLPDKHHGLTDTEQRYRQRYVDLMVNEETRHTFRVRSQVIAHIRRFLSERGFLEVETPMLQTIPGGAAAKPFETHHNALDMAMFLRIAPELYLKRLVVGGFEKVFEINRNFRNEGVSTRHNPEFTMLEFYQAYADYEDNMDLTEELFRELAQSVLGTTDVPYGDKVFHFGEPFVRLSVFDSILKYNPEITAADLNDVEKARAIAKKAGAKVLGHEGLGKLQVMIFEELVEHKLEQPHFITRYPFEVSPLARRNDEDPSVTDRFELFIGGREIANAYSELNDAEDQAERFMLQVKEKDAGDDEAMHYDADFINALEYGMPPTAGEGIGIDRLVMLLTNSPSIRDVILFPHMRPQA
Description: SPA-based tRNA aminoacylation assay. Format: biochemical.

The target in data set [2] is T1, P. aeruginosa LysRS. Description: Binding mode. In kind it is biochemical. The settings on record: for mechanism of inhibition with respect to ATP: IC50 at ATP 25 to 1000 μM, amino acid constant; for mechanism of inhibition with respect to ATP / mechanism of inhibition with respect to lysine: LysRS 0.01 μM; for mechanism of inhibition with respect to lysine: IC50 at lysine 25 to 300 μM, ATP 2.5 mM.

The next data set has as its system M. catarrhalis. The data set is described as follows: Time-kill kinetic assay. Format: cell-based, Moraxella catarrhalis. The settings on record: 4×MIC, 0 to 24 h.
For data set [3], the system named is human embryonic kidney 293 cells (HEK-293).
Data set [4] has as its system gram-positive bacterial cultures. The settings on record: cited from earlier work.
Data set [5] has as its system human embryonic kidney 293 cells (HEK-293). Description: MTT cytotoxicity assay. The settings on record: HEK-293, MTT, 25 to 400 μg/mL, 24 h. For orientation: Tetrazolium dyes change colour on reduction, which living cells bring about.
For the next data set, the system named is eukaryotic LysRS. The settings on record: cited from earlier work.
Data set [6] has as its target T1, P. aeruginosa LysRS. The data set is described as follows: ATP:PPi exchange reaction, substrate kinetics. The settings on record: substrate varied, other substrate held at 2 mM; LysRS 0.1 μM.

The IC50 is the concentration that inhibits the measured activity by half. A high value points to weaker potency in that assay. In general, Ki refers to the dissociation constant of the complex between target and ligand, obtained from inhibition or displacement. In turn, `C=CC1=C(C)/C(=C/c2[nH]c(Cc3[nH]c(/C=C4\NC(=O)C(C)=C4C=C)c(C)c3CCC(=O)O)c(CCC(=O)O)c2C)NC1=O` [BM01D09, bilirubin] displayed an IC50 against P. aeruginosa LysRS [1] of 17 µM. In addition, on P. aeruginosa LysRS [2], the affinity, expressed as Ki, was 3.5 µM; the “mechanism of inhibition with respect to ATP” value is listed as “competing with ATP; also recorded: IC50 also increased; also recorded: competitive inhibition”; the “mechanism of inhibition with respect to lysine” value is “no change in the IC50”. At P. aeruginosa LysRS [2] (listed as bilirubin), the “mechanism of inhibition with respect to ATP” value is recorded as “competitive with ATP” and the “mechanism of inhibition with respect to lysine” value was “noncompetitive with lysine”. Moreover, the “global mode of inhibition (time-kill)” value in the data set with M. catarrhalis is “bacteriostatic”. Besides, the “CC50 relative to MICs against susceptible bacteria” value in data set [3] is 6-20 fold. Also, in data set [4], the “inhibition of growth of gram-positive bacterial cultures” value is recorded as “inhibitory”.
For `S=C(N/N=C1\CCCc2c1[nH]c1ccc(C3CCCCC3)cc21)Nc1ccccc1` [BT06F11, 1-[(~›E‹)-(6-cyclohexyl-2,3,4,9-tetrahydrocarbazol-1-ylidene)amino]-3-phenylthiourea], at P. aeruginosa LysRS [2], the “mechanism of inhibition with respect to ATP” value was “mechanism other than substrate competition; also recorded: noncompetitive; also recorded: not observed to be competitive” and the “mechanism of inhibition with respect to lysine” value is reported as “mechanism other than substrate competition; also recorded: noncompetitive; also recorded: not observed to be competitive”. The “global mode of inhibition (time-kill)” value with M. catarrhalis is reported as “bactericidal; also recorded: inhibited growth by killing the bacteria”. Besides, the “toxicity to human cell growth (in words)” value in data set [5] is recorded as “not toxic at any concentration tested; also recorded: not observed to be toxic”.
As for `O=C(CCCCCCCCC(=O)N/N=C/c1ccc([N+](=O)[O-])o1)N/N=C/c1ccc([N+](=O)[O-])o1` [BT08F04, ~›N‹,~›N‹′-bis[(~›E‹)-(5-nitrofuran-2-yl)methylideneamino]decanediamide], on P. aeruginosa LysRS [2], the “mechanism of inhibition with respect to ATP” value is on record as “competitive with ATP; also recorded: competitive inhibition” and the “mechanism of inhibition with respect to lysine” value is reported as “uncompetitive with the amino acid”. Further, at P. aeruginosa LysRS [2] (read-out: mean Ki, calculated from IC50 values determined at 75 μM lysine and 2.5 mM ATP, multiple determinations), the inhibition constant Ki is 3.4 µM. Besides, in the data set with M. catarrhalis, the “global mode of inhibition (time-kill)” value is reported as “bactericidal; also recorded: inhibited growth by killing the bacteria”.
In the case of `C[C@H]1CCC[C@H](C[C@H]2Cc3cc(O)cc(O)c3C(=O)O2)O1` [cladosporin], the “inhibition of eukaryotic LysRS (in words)” value in the data set with eukaryotic LysRS was “potent ATP competitive inhibitor”.
For `NCCCC[C@H](N)C(=O)O` [lysine], at P. aeruginosa LysRS [6], the “kcat^obs” value is 13 s⁻¹ and 13.3 s⁻¹.
